In patent publication US20250354192A1, “METHODS FOR QUANTIFYING LIVE BACTERIA” (priority 2022, published 2025):

Legend:
E. coli = assay: Cell doubling control with DL-serine hydroxamate, OD600 and EDA click labeling on PIPER; assay type: cell-based
Protocol: E. coli was grown overnight at 37° C. The next day, cells were diluted into fresh media and grown for 2 hours. Next, +/−DL-serine hydroxamate (SHX; 1 mg/ml) and EDA (1 mM) were added. OD600 was taken every 20 min for 90 min. Aliquots of cells at the last time point were pelleted by centrifugation (10 min 10,000 g), and supernatant was discarded. Bacteria were washed with 1 mL of 1× PBS, pelleted by centrifugation (10 min 10,000 g), and supernatant was discarded. Cell pellets were resuspended in click reaction solution containing 200 μM copper sulfate (II) (MilliporeSigma, Burlington, MA), 128 μM THPTA ligand (Lumiprobe, Hunt Valley, MD), 2.5 mM Ascorbic acid (MilliporeSigma, Burlington, MA), 25 μM CF488 picolyl azide fluorescent dye (Biotium, Fremont, CA) and incubated for 30 min at room temperature. Cells were pelleted by centrifugation (10 min 10,000 g), supernatant was discarded, and pellets were resuspended 1 mL of 1× PBS. Finally, pellets were resuspended in PBS, mixed with ferrofluid and processed in the non-capture assay on PIPER. An automated bacterial image recognition algorithm determined labeled cell counts.

Salmonella Typhimuirum = assay: Time course of labeling with NADA-Green, PIPER cartridge coated with Salmonella-specific antibody; assay type: cell-based; details: 1 mM, 30 minutes or 90 minutes, 37° C. in BHI
Protocol: Cells were pelleted by centrifugation (10 min 10,000 g) to remove the excess dye, resuspended in 1×PBS, mixed with ferrofluid, and processed on PIPER using a cartridge having areas coated with a Salmonella-specific antibody.

[1] = tested on: Bacillus, Enterococcus, Listeria, Salmonella, and Klebsiella; assay: NADA-Green labeling of live versus heat-killed bacteria, PIPER non-capture assay; assay type: cell-based; details: 1 mM, 60 minutes; live log phase or heat-killed 15 minutes at 70° C.
Protocol: Accordingly, as shown in FIG. 2A-E, NADA-Green labels live bacteria and illustrates five (5) different strains (Bacillus, Enterococcus, Listeria, Salmonella, and Klebsiella) of log phase bacteria growing at 37° C. in brain heart infusion (BHI) media or heat-killed for 15 minutes at 70° C. were incubated with or without the fluorescent D-amino acid, NADA-Green at 1 mM (Bio-Techne, Minneapolis, MN) for 60 minutes. Cells were pelleted to remove the excess dye and resuspended in 1X phosphate buffered saline (PBS). Each sample was then split into two tubes. To one of the tubes, SYBR Green (ThermoFisher Scientific, Waltham, Massachusetts) was added in 1:100 dilution. All samples were processed on Ancera Inc.'s PIPER™ platform (“PIPER”) in a non-capture assay and analyzed by a bacterial image recognition algorithm to determine labeled cell counts. […] SYBR labeling confirmed that the dead cells remained intact on the instrument.

[2] = tested on: gram-positive and gram-negative bacteria; assay: Labeling of gram-positive and gram-negative bacteria with NADA-Green, PIPER non-capture assay; assay type: cell-based, five (5) different strains of log phase bacteria; details: 1 mM, 90 minutes
Protocol: FIG. 4 depicts the labeling of gram-positive and gram-negative bacteria with NADA-Green with the five (5) different strains of log phase bacteria (see FIGS. 2A-E) growing at 37° C. in BHI media, and then incubated with 1 mM NADA-Green (Bio-Techne, Minneapolis, MN) for 90 minutes. Cells were pelleted by centrifugation (10 min 10,000 g) to remove the excess dye, resuspended in 1×PBS, mixed with ferrofluid, and processed on PIPER in a non-capture assay.

[3] = tested on: eight (8) different strains of log phase bacteria; assay: Quantification of cells labeled with NADA-Green in eight strains, PIPER image recognition algorithm; assay type: cell-based; details: 1 mM, 60 minutes
From the text: FIG. 5A depicts the quantification of cells labeled with NADA-Green in eight (8) different strains of log phase bacteria. FIG. 5B depicts the quantification of cell labelling efficiency by NADA-Green in eight (8) different strains of log phase bacteria (SE—Salmonella enterica; EC—Escherichia coli; KP—Klebsiella pneumoniae; CF—Citrobacter freundii; SA—Staphylococcus aureus; BC—Bacillus cereus; LM—Listeria monocytogenes; PA—Pseudomonas aeruginosa), determined as a percentage of NADA-labelled PIPER cell counts to the SYBR-labelled PIPER cell counts. Cells growing at 37° C. in BHI media were incubated with 1 mM NADA-Green (Bio-Techne, Minneapolis, MN) for 60 minutes. Cells were pelleted by centrifugation (10 min 10,000 g) to remove the excess dye, resuspended in 1×PBS, mixed with ferrofluid, and processed on PIPER in a non-capture assay. An automated bacterial image recognition algorithm determined labeled cell counts.

[4] = tested on: Salmonella Typhimurium, Staphylococcus aureus, or a mixture of the two strains; assay: Labeling of a mixed culture with NADA-Green, PIPER non-capture assay; assay type: cell-based; details: 1 mM, 60 minutes, 37° C.
Protocol: Even with efficient uptake of the D-amino acid analog, gram-negative bacteria may not stain as brightly as gram-positive bacteria because gram-negative bacteria have a much thinner peptidoglycan layer. […] For example, FIGS. 12A-B depict labeling of a mixed culture with NADA-Green. A log phase culture of Salmonella Typhimurium, Staphylococcus aureus, or a mixture of the two strains was incubated at 37° C. with 1 mM NADA-Green Bio-Techne, Minneapolis, MN) for 60 minutes. Cells were pelleted by centrifugation (10 min 10,000 g) to remove the excess dye, resuspended in 1×PBS, mixed with ferrofluid, and processed on PIPER in a non-capture assay. […] Salmonella cells appear smaller and dimmer in the image than Staph. aureus cells.

[5] = tested on: Eight (8) different species of bacteria; assay: Bacterial growth (OD600) of cold-stressed cultures in BHI with or without chloramphenicol; assay type: cell-based; details: 5 μg/mL in BHI, 37° C., 2-hour observation window
Protocol: Eight (8) different species of bacteria (Salmonella enterica, E. coli, Klebsiella pneumoniae, Citrobacter freundii, Staphylococcus aureus, Bacillus cereus, Listeria monocytogenes and Pseudomonas aeruginosa) were propagated from frozen stocks onto TSA plates and incubated at 37° C. for 24 hours. To induce cold-stress, a loopful of cells from each plate was transferred into 3 mL of Butterfield's Phosphate Buffer, vortexed to suspend the cells, and placed at 4° C. for 1 day. The following day, cells from each culture were pelleted for 10 minutes at 10,000 g and resuspended in BHI (FIG. 19A) or BHI containing 5 μg/mL of chloramphenicol (FIG. 19B). Each culture was normalized to an absorbance value at 600 nm (OD600) of 0.05 and loaded in triplicate onto a sterile microplate at 0.2 mL per well. The microplate was covered with BreatheEasy film and bacterial growth was monitored using a SpectroStar Nano spectrophotometer (BMG Labtech, Cary, NC) for 24 hours. During growth, the temperature was maintained at 37° C. and the plate was automatically shaken prior to OD600 readings every 10 minutes. […] OD600 observations were validated using the “gold-standard” petrifilm counts (3M) (FIG. 19C). […]

[6] = tested on: Klebsiella pneumoniae (KP); assay: APC petrifilm counts before and after 90 minutes incubation with or without chloramphenicol; assay type: cell-based; details: 5 μg/mL, 37° C. for 90 minutes
Protocol: (§1) Eight (8) different species of bacteria (Salmonella enterica, E. coli, Klebsiella pneumoniae, Citrobacter freundii, Staphylococcus aureus, Bacillus cereus, Listeria monocytogenes and Pseudomonas aeruginosa) were propagated from frozen stocks onto TSA plates and incubated at 37° C. for 24 hours. To induce cold-stress, a loopful of cells from each plate was transferred into 3 mL of Butterfield's Phosphate Buffer, vortexed to suspend the cells, and placed at 4° C. for 1 day. The following day, cells from each culture were pelleted for 10 minutes at 10,000 g and resuspended in BHI (FIG. 19A) or BHI containing 5 μg/mL of chloramphenicol (FIG. 19B). Each culture was normalized to an absorbance value at 600 nm (OD600) of 0.05 and loaded in triplicate onto a sterile microplate at 0.2 mL per well. The microplate was covered with BreatheEasy film and bacterial growth was monitored using a SpectroStar Nano spectrophotometer (BMG Labtech, Cary, NC) for 24 hours. During growth, the temperature was maintained at 37° C. and the plate was automatically shaken prior to OD600 readings every 10 minutes. […] A cold-stressed Klebsiella pneumoniae (KP) culture prepared as described above was transferred into BHI or BHI containing 5 μg/mL of chloramphenicol and either plated immediately or placed at 37° C. for 90 minutes. […]

[7] = tested on: Klebsiella pneumoniae (KP); assay: 3-step metabolic labeling with EDA with or without chloramphenicol, detection on PIPER; assay type: cell-based; details: 5 μg/mL, 1 mM EDA, 37° C. for 90 min
Protocol: as §1

B. cereus (ATCC 33019) = details: ethanol 70%, 5 to 10 min at room temperature
Protocol: (§2) Experimental Detail: A single colony of each indicated bacteria was inoculated into BHI and incubated overnight at 37° C. On the next day, the cells were diluted into fresh BHI and incubated for 2 h at 37° C. followed by an additional 90-minute incubation in the presence or absence of 1 mM EDA, where indicated. Where indicated, an aliquot of each culture was mixed with 96% ethanol to a final concentration of 70% (A, B) or 25% (C) and incubated for 5 to 10 min at room temperature. Cultures not exposed to ethanol were incubated for an equal amount of time in 1×PBS. Cells were pelleted by centrifugation for 10 min at 10,000 g, and supernatant containing excess EDA and ethanol was discarded. Cells were then resuspended in 300 μL of 1×PBS and pelleted again by centrifugation (10 min at 10,000 g). The 3rd step was carried out by resuspending cell pellets in 0.25 mL of 1×PBS solution containing 200 μM copper sulfate (II) (MilliporeSigma, Burlington, MA), 128 μM THPTA ligand (Lumiprobe, Hunt Valley, MD), 2.5 mM Ascorbic acid (MilliporeSigma, Burlington, MA), 25 μM CF488 picolyl azide fluorescent dye (Biotium, Fremont, CA), and 5% DMSO (Thermo Fisher Scientific, Waltham, MA). After a 30-minute incubation at room temperature, 500 μL of 1×PBS was added to each reaction, and cells were harvested by centrifugation (10 min at 10,000 g). Supernatant containing excess dye and reaction components was discarded, cells were washed with 500 μL of 1×PBS, and the cells were pelleted again by centrifugation. Finally, each cell pellet was resuspended in 0.3 mL of 1×PBS and mixed with an equal volume of ferrofluid. All samples were run on PIPER, and cell counts were generated by image analysis using an automated bacterial image recognition algorithm.

[8] = tested on: Salmonella enterica (ATCC 12023), Klebsiella pneumoniae (ATCC 13882), Citrobacter freundii (ATCC 8090), and E. coli (ATCC 35421); details: ethanol 25%, N=3
Protocol: as §2

E. coli (ATCC 35421) = details: 5 or 10 minutes with ethanol; cells grown in the presence of EDA
Protocol: as §2

`NC(CO)C(=O)NO` (racemic) [DL-Serine hydroxamate, DL-serine hydroxamate] was tested, and the “labeling with EDA and click reaction in the presence of the agent” value (E. coli; 1 mg/ml SHX, 1 mM EDA) was “does not prevent labeling” and the “doubling of fast-growing cells (OD600)” value (E. coli; 1 mg/ml, OD600 every 20 min for 90 min) was “slows doubling of fast-growing cells”.

In the case of `N[C@H](CNc1ccc([N+](=O)[O-])c2nonc12)C(=O)O` [NADA-Green], the “interference with cell growth or capture by the antibody” value (Salmonella Typhimuirum) is reported as “does not interfere with cell growth or capture by the antibody”, the “labeled cell counts above background noise, live versus heat-killed cells” value [1] is reported as “Only live cells labeled with NADA-Green were counted above background noise” and the labeling of bacteria [2] is reported as “labels both gram-positive and gram-negative bacteria”. For the same molecule, the “detection of labeled strains by the image recognition algorithm” value [3] was “All labeled strains except Pseudomonas were detected” and the “PIPER counts in mixed culture versus individual cultures” value [4] was “counts in the mixed culture are approximately additive of the counts for each individual culture”.

With `O=C(N[C@H](CO)[C@H](O)c1ccc([N+](=O)[O-])cc1)C(Cl)Cl` [chloramphenicol] the “doubling (OD600)” value [5] was “prevented doubling in all 8 strains”, the “cell doubling by APC petrifilm counts” value [6] was “prevented cell doubling” and the “PIPER cell counts versus sample without chloramphenicol” value [7] was “slight decrease in cell counts”. The “interference with 3-step metabolic labeling and detection on PIPER” value [7] was “did not interfere with 3-step metabolic labeling and detection on PIPER”.

In the case of `CCO` [ethanol], the “CuAAC labeling with or without ethanol treatment” value (B. cereus (ATCC 33019)) is reported as “occurred efficiently both with or without ethanol treatment”, the “cell counts, cell mean intensity and variability across technical replicates” value [8] is reported as “improved cell counts and/or cell mean intensity and reduced the variability across technical replicates” and the “detection after ethanol incubation prior to the click reaction” value (E. coli (ATCC 35421)) is reported as “dramatically improved detection”.
